Measurements as given in PMC10840350 (Redox Biology, 2024).

Experiments:
[1] = molecular target: T1, TXNRD1 (thioredoxin reductase 1) (Rattus norvegicus, UniProt O89049); experiment: […] min incubation, residual activity by DTNB reduction assay; type: biochemical; settings: 0.25 h, read-out: % residual activity at 0.5 μM
T1 sequence (O89049 1-499): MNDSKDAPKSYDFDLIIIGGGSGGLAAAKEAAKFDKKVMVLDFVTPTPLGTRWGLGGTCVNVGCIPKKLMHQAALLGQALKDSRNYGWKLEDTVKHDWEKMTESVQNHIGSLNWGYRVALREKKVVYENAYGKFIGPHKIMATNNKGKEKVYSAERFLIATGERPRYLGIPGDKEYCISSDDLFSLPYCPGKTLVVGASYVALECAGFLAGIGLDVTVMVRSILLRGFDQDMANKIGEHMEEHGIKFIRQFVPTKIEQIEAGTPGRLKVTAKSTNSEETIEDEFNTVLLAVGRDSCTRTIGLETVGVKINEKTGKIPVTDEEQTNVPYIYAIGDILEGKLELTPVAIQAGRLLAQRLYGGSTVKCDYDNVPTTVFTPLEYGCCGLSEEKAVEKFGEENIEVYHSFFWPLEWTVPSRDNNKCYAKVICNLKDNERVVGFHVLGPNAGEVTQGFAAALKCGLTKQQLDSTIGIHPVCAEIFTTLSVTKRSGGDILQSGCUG

[2] = molecular target: T1, TXNRD1 (thioredoxin reductase 1); experiment: as above; type: biochemical

Row | SMILES | remaining activity at 0.5 µM [1] [%] | 60 min incubation, residual activity by DTNB reduction assay [2]
1 | COc1ccc([N+](=O)[O-])c(S(=O)(=O)c2ccc(Cl)cc2)n1 [TRi-1] | ~30 | –
2 | [NH2][Pt]([NH2])([Cl])[Cl] [cisplatin] | – | the inhibition of auranofin and cisplatin on TXNRD1 is not significantly affected by guiding bar mutants
